{
  "source": "patent US20090306093A1",
  "about": "“METHOD FOR TREATING PATIENT HAVING BENIGN PROSTATE HYPERPLASIA” (KAOHSIUNG MEDICAL UNIVERSITY, priority 2008, published 2009)",
  "key": {"[1]": {"test_system": "PKG", "experiment": "Western blot of PKG expression in rat prostate", "protocol": "(§1) Prostate strips were incubated with KMUP-1 (10-100 μM), sildenafil (100 μM) and zaprinast (100 μM) in 10 mL Tyrode solution aerated with 95% O2 and 5% CO2 for 1 hour. To examine the possible mechanisms of KMUP-1 action, the rat prostate were pretreated with ODQ (10 μM), SQ22536 (10 μM) and RP-8pCPT-cGMPs (10 μM) for 30 minutes prior to the addition of KMUP-1 (100 μM).\n(§2) In order to examine the expression of Rho kinase in prostate, the prostate strips were pre-incubated with phenylephrine (10 μM) for 30 minutes. After a pre-treatment of phenylephrine, KMUP-1 (10-100 μM) and Y-27632 (10 μM) were further incubated for 30 minutes. After the incubation time, the prostate were extracted with protein extraction reagent (Pierce Biotechnology, Inc., Rockford, Ill., USA.). The PZ-HPV-7 cells were incubated with and without KMUP-1 (0.1-10 μM) at 30 minutes, 8 and 24 hours. They were then washed rapidly with ice-cold PBS, incubated with protein extraction reagent, and scraped from the plates. The prostate tissues and cells were sonicated three times for 10 second each time and centrifuged at 13,000 rpm at 4° C. for 30 minutes. The protein concentrations of supernatants were determined, using bovine serum albumin as the standard. Tissue and cell extract protein were then boiled at a ratio of 4:1 with sample buffer (100 mM Tris, pH 6.8, 20% glycerol, 4% SDS, and 0.2% bromphenol blue). 40-60 μg protein was used in this experiment. Electrophoresis was performed using 10 or 12% SDS-polyacrylamide gel electrophoresis and then transferred to nitrocellulose membranes (Millipore Corporation, Billerica, Mass.). The membrane was blocked with Tris-buffered saline (20 mM Tris and 137 mM NaCl, pH 7.6) containing 0.1% Tween 20 (TTBS) and 5% non-fat milk at room temperature for 1 hour, washed with TTBS, and then incubated overnight at 4° C. in the appropriate primary antibody of PKG (Santa Cruz, 1:200), sGCa1 (Santa Cruz, 1:200), PKA (Abcam, 1:1000), ROCK2 (Upstate, 1:1000), and PDE5A (BD Biosciences, 1:1000), p21 (Upstate, 1:1000). The membranes were washed in TTBS before being incubated with horseradish peroxidase-conjugated antibody against mouse, goat, or rabbit IgG (Santa Cruz, 1:1000) for 1 hour. The membrane was then washed in TTBS and developed with the enhanced chemiluminescence (ECL) for the detection of the specific antigen. The intensity of the bands was measured by densitometry."}, "[2]": {"test_system": "sGCa1", "experiment": "Western blot of sGCa1 expression in rat prostate", "protocol": "as §1, §2"}, "[3]": {"test_system": "PZ-HPV-7 human prostatic epithelial cells", "experiment": "Trypan blue exclusion assay", "type": "cell-based", "settings": "1-100 μM, 24 and 48 hours", "protocol": "PZ-HPV-7, a human prostate epithelial cell line derived from normal peripheral zone tissue and transfected with human papillomavirus type 18, was obtained from the American Type Culture Collection (ATCC). Cells were grown in K-SFM medium supplemented with 100 U/mL penicillin, […], streptomycin 5 ng/ml, EGF human recombinant and 50 µg/mL BPE in 75-cm^2 flasks at 37° C. in a humidified atmosphere of […]. The culture medium was renewed every 2 days and cells were sub-cultured every 6 days. For the experiments, cells were seeded in 24-well plates at a density of 1×10^4 cells/well. After 24 hours and 48 hours, when cells were 80% confluent, KMUP-1 (1-100 μM) was added to the 24-well plates. Cell proliferation was measured using MTT assay (3-[4,5-dimethylthiazol-2-yl]-2,5-diphenyl-tetrazolium bromide, Sigma). The trypan blue […] exclusion assay was performed to determine the proportion of living and dead cells in 24 hours and 48 hours after treatment. After 24 hours and 48 hours of treatment with KMUP-1 (1-100 μM), attached cells were collected by trypsinization. Cells were counted in a hemocytometer using equal volume of cell suspension and trypan blue solution (0.2% in PBS)."}, "[4]": {"test_system": "p21", "experiment": "Western blot of p21 protein in PZ-HPV-7 cells", "type": "cell-based, human", "settings": "1, 10 μM, until 24 hours", "protocol": "as §2, with “The membrane was blocked with Tris-buffered saline (20 mM Tris and 137 mM NaCl, pH 7.6) containing 0.1% Tween 20 (TTBS) and 5% non-fat milk at room temperature for 1 hour, washed with TTBS, and then incubated overnight at 4° C. in the appropriate primary antibody of PKG (Santa Cruz, 1:200), sGCa1 (Santa Cruz, 1:200), PKA (Abcam, 1:1000), ROCK2 (Upstate, 1:1000), and PDE5A (BD Biosciences, 1:1000), p21 (Upstate, 1:1000). The membranes were washed in TTBS before being incubated with horseradish peroxidase-conjugated antibody against mouse, goat, or rabbit IgG (Santa Cruz, 1:1000) for 1 hour. The membrane was then washed in TTBS and developed with the enhanced chemiluminescence (ECL) for the detection of the specific antigen.” left out"}, "[5]": {"test_system": "cGMP", "experiment": "Determination of cGMP in rat isolated prostate (radioimmunoassay)", "settings": "for cGMP levels: 1 hour", "protocol": "Isolated prostate strips from Wistar rats were prepared to determine prostate levels of cGMP and cAMP. Briefly, prostate strips were respectively incubated with KMUP-1 (10-100 μM), sildenafil (100 μM), and zaprinast (100 μM) in 10 mL Tyrode solution aerated with 95% O2 and 5% CO2 for 1 hour. To examine the possible mechanisms of action of KMUP-1, the rat prostate was pretreated with ODQ (10 μM, sGC inhibitor) and SQ22536 (9-(tetrahydro-2-furanyl)-9H-purin-6-amine, 10 μM, adenylyl cyclase inhibitor) for 30 minutes before KMUP-1 was added. After the incubation, the prostate tissues were extracted with 1 mL of 0.1 N HCl. The extracts were then lyophilized for a further measurement of cyclic GMP or cyclic AMP of each sample, using commercially available radioimmunoassay kits (Amersham Pharmacia Biotech, Buckinghamshire, England)."}},
  "data": [
    {"smiles": "Cn1c(=O)c2c(ncn2CCN2CCN(c3ccccc3Cl)CC2)n(C)c1=O", "note": "[KMUP-1, 7-[2-[4-(2-Chlorobenzene)piperazinyl]ethyl]-1,3-dimethyl xanthine]", "values": [
      {"measurement": "expression of PKG", "setting": "[1]; KMUP-1 100 μM after pretreatment of RP-8-pCPT-cGMPs 10 μM for 30 minutes", "result": "significantly reduce"},
      {"measurement": "expression of PKG", "setting": "[1]; KMUP-1 10, 100 μM, sildenafil, zaprinast 100 μM", "result": "significantly induce"},
      {"measurement": "expression of sGCa1", "setting": "[2]; KMUP-1 100 μM after pretreatment of ODQ 10 μM for 30 minutes", "result": "significantly reduce"},
      {"measurement": "expression of sGCa1", "setting": "[2]; KMUP-1 10-100 μM, sildenafil, zaprinast 100 μM, 1 hour", "result": "most potently induces"},
      {"measurement": "PZ-HPV-7 cell growth, Trypan blue assay", "setting": "[3]", "result": "dose- and time-dependent inhibition"},
      {"measurement": "production of p21 protein levels", "setting": "[4]", "result": "potently induces"},
      {"measurement": "cGMP levels", "setting": "[5]; 10 μM", "result": "3.50±0.58", "unit": "pmol mg^−1 protein"},
      {"measurement": "cGMP levels", "setting": "[5]; 100 μM", "result": "7.50±0.79", "unit": "pmol mg^−1 protein"},
      {"measurement": "accumulation of cGMP", "setting": "[5]; KMUP-1 100 μM in the presence of ODQ 10 μM", "result": "2.54±0.73", "unit": "pmol mg^−1 protein"}
    ]}
  ]
}
